The source made the active and inactive calls. No cut-off for these calls is given here.
Legend:
A-375 [1] = experiment: Binding affinity to RACK1 in human A-375 cells at 10 uM preincubated for 4 hrs followed by irradiation with UV for 30 mins measured by Western blotting based pull-down assay; format: cell-based; conditions: time 4.5 hrs
A-375 [2] = experiment: Inhibition of cell migration in human A-375 cells at measured after 24 hrs by phase contrast microscopy based wound healing assay; format: functional; conditions: dose 0.5-2 µM
A-375 [3] = experiment: Inhibition of cell invasion in human A-375 cells at measured after 24 hrs by crystal violet staining based imaging analysis; format: functional; conditions: dose 0.5-2 µM
A-375 [4] = experiment: Antiproliferative activity against human A-375 cells assessed as reduction in cell viability at 1.5625 to 50 uM after 24 hrs by MTT assay; format: functional, cell-based; conditions: dose 1.5625-50 µM
[5] = Drug degradation in DMEM medium with 10% fetal bovine serum assessed as compound hydrolysis at 200 uM incubated upto 24 hrs by HLPC analysis; format: ADME, cell-free; conditions: cattle, read-out: Drug degradation
A-375 [6] = experiment: Binding affinity to RACK1 in human A-375 cells at 10 uM preincubated for 4 hrs in the presence of harringtonolide followed by irradiation with UV for 30 mins measured by Western blotting based pull-down assay; format: cell-based; conditions: time 4.5 hrs
A-375 [7] = experiment: Binding affinity to RACK1 in human A-375 cells assessed as prevention of temperature dependent protein degradation at 10 uM preincubated for 60 mins at room temperature followed by heat treatment at 45 to 63 degree C for 5 mins measured by immunoblotting based cellular thermal shift assay; format: cell-based
A-375 [8] = experiment: Antiproliferative activity against human A-375 cells assessed as reduction in cell viability after 24 hrs by MTT assay; format: functional, cell-based; conditions: A-375, 24 h
A-375 [9] = experiment: Binding affinity to RACK1 in human A-375 cells assessed as prevention of pronase-mediated protein degradation at 5 to 20 uM preincubated for 60 mins followed by enzyme addition and measured after 25 mins by immunoblotting based DARTS assay; format: cell-based; conditions: dose 5-20 µM, time 85.0 min
A-375 [10] = experiment: Inhibition of epithelial-mesenchymal transition in human A-375 cells assessed as downregulation of N-cadherin expression at 0.5 to 4 uM measured after 24 hrs by Western blotting analysis; format: functional, cell-based; conditions: dose 0.5-4 µM
A-375 [11] = experiment: Inhibition of epithelial-mesenchymal transition in human A-375 cells assessed as downregulation of Snail expression at 0.5 to 4 uM measured after 24 hrs by Western blotting analysis; format: functional, cell-based; conditions: dose 0.5-4 µM
A-375 [12] = experiment: Inhibition of epithelial-mesenchymal transition in human A-375 cells assessed as upregulation of E-cadherin expression at 0.5 to 4 uM measured after 24 hrs by Western blotting analysis; format: functional, cell-based; conditions: dose 0.5-4 µM
[13] = target: Focal adhesion kinase 1 (Homo sapiens) (UniProt Q05397); experiment: Inhibition of FAK phosphorylation in human A-375 cells measured after 24 hrs by Western blotting analysis; format: cell-based; conditions: dose 0.5-4 µM
Chain of Focal adhesion kinase 1 (Homo sapiens) (Q05397 2-1052 limits assumed): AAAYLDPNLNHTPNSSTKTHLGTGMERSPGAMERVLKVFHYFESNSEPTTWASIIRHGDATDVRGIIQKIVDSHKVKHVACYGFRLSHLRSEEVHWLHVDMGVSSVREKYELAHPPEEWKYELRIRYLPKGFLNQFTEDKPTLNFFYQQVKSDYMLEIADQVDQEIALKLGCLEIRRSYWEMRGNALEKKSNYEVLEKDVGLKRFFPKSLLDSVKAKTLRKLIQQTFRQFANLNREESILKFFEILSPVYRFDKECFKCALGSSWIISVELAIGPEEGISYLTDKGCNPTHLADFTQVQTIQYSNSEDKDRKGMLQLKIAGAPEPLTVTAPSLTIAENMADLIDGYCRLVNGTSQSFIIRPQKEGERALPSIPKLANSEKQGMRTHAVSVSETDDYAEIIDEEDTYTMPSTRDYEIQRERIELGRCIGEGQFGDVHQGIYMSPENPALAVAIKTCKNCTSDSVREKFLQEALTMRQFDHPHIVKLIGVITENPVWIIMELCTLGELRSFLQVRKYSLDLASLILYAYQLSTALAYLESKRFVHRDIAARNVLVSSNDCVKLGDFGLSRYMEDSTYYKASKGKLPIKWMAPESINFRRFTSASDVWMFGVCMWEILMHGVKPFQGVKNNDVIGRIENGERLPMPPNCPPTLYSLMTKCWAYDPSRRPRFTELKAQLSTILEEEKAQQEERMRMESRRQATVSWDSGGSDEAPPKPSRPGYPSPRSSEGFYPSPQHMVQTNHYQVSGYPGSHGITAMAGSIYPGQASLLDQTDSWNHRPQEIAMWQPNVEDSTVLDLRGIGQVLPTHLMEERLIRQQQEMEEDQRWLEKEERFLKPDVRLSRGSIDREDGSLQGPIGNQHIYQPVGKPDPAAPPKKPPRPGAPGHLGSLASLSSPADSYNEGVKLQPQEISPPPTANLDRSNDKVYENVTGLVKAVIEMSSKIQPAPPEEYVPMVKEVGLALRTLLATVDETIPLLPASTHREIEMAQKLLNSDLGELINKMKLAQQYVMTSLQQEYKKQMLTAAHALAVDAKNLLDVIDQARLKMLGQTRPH

[14] = target: Focal adhesion kinase 1 (Homo sapiens) (UniProt Q05397); experiment: Inhibition of FAK in human A-375 cells assessed as reduction in Src activation at 0.5 to 4 uM measured after 24 hrs by Western blotting analysis; format: cell-based; conditions: dose 0.5-4 µM
[15] = target: Focal adhesion kinase 1 (Homo sapiens) (UniProt Q05397); experiment: Inhibition of FAK in human A-375 cells assessed as reduction in STAT3 activation at 0.5 to 4 uM measured after 24 hrs by Western blotting analysis; format: cell-based; conditions: dose 0.5-4 µM
[16] = target: Signal transducer and activator of transcription 3 (Homo sapiens) (UniProt P40763); experiment: Inhibition of STAT3 in human A-375 cells assessed as decrease in Bcl2 protein level at 0.5 to 4 uM measured after 24 hrs by western blot analysis; format: cell-based; conditions: dose 0.5-4 µM
Chain of Signal transducer and activator of transcription 3 (Homo sapiens) (P40763 whole entry): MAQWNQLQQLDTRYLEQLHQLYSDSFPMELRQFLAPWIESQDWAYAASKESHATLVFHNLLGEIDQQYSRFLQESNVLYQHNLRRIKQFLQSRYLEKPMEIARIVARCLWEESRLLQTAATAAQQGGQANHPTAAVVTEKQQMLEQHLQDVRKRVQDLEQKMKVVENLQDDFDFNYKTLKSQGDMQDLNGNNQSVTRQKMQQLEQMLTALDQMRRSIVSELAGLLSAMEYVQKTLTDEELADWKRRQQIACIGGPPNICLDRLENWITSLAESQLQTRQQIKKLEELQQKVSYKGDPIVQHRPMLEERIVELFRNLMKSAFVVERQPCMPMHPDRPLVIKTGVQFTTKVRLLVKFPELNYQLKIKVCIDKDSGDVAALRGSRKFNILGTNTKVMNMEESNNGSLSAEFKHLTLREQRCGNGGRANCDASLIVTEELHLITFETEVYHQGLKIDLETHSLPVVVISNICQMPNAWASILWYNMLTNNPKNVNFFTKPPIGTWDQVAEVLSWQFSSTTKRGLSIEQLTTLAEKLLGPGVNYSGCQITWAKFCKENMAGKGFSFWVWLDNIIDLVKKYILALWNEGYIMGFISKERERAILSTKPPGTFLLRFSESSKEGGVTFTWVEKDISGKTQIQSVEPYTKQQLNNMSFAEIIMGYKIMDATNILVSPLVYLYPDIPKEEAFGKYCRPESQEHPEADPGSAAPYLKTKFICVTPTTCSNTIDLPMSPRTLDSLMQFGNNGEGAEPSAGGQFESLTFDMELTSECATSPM

[17] = target: Signal transducer and activator of transcription 3 (Homo sapiens) (UniProt P40763); experiment: Inhibition of STAT3 in human A-375 cells assessed as decrease in c-Myc protein level at 0.5 to 4 uM measured after 24 hrs by western blot analysis; format: cell-based; conditions: dose 0.5-4 µM
A-375 [18] = experiment: Inhibition of RACK1-FAK protein-protein interaction in human A-375 cells measured after 24 hrs by co-immunoprecipitation assay; format: cell-based; conditions: dose 2-4 µM
A-375 [19] = experiment: Antiproliferative activity against human A-375 cells assessed as reduction in cell viability upto 50 uM after 24 hrs by MTT assay; format: functional, cell-based; conditions: dose microM <=50, time 24.0 hrs
[20] = Stability of the compound in DMEM medium with 10% fetal bovine serum assessed as parent compound remaining at 200 uM incubated upto 24 hrs by HLPC analysis; format: ADME, cell-free; conditions: cattle, read-out: Stability

In the case of C#CCCC1(CCC(=O)O[C@H]2C[C@]34C(=O)O[C@H]5[C@H](O[C@H]6c7c(C)cc(=O)cc2c7[C@@H]3[C@@H]56)[C@H]4C)N=N1, the Activity (A-375 [1]) is reported as “Active”, the inhibition (A-375 [2]) is reported as “Dose-Dependent Effect” and the inhibition (A-375 [3]) is reported as “Dose-Dependent Effect”. The Activity (A-375 [4]) was “Active”, the degraded at 24 h, 200 µM [5] was 13.6% and the Activity (A-375 [6]) was “inactive”.

For Cc1cc(=O)cc2c3c1[C@@H]1O[C@H]4[C@@H]5OC(=O)[C@](CC2)([C@@H]4C)[C@H]3[C@@H]51 [HAINANOLIDE], the Activity (A-375 [7]) was “Active”, the IC50 (A-375 [8]) was 39.7 µM and the Activity (A-375 [9]) was “Active”. For the same compound, the inhibition (A-375 [2]) was “Dose-Dependent Effect”, the inhibition (A-375 [3]) was “Dose-Dependent Effect” and the inhibition (A-375 [10]) was “Active”. For the same compound, the inhibition (A-375 [11]) was “Active”, the inhibition (A-375 [12]) was “Active” and the inhibition [13] was “Dose-Dependent Effect”. The inhibition [14] was “Active”, the inhibition [15] was “Active” and the inhibition [16] was “Active”. The inhibition [17] was “Active” and the inhibition (A-375 [18]) was “Dose-Dependent Effect”.

With Cc1cc(=O)cc2c3c1[C@@H]1O[C@H]4[C@@H]5OC(=O)[C@](C[C@@H]2OC(=O)COCCOCCOCCOCCNC(=O)CCCC[C@@H]2SC[C@@H]6NC(=O)N[C@@H]62)([C@@H]4C)[C@H]3[C@@H]51 the Activity (A-375 [19]) was “inactive”.

In the case of Cc1cc(=O)cc2c3c1[C@@H]1O[C@H]4[C@@H]5OC(=O)[C@](C[C@@H]2OC(=O)COCCOCCNC(=O)CCCC[C@@H]2SC[C@@H]6NC(=O)N[C@@H]62)([C@@H]4C)[C@H]3[C@@H]51, the remaining at 24 h, 200 µM [20] is reported as 59.2% and the Activity (A-375 [4]) is reported as “Active”.

— ChEMBL document CHEMBL5046311, “Photoaffinity Probe Reveals the Potential Target of Harringtonolide for Cancer Cell Migration Inhibition” (ACS Med Chem Lett, 2022)
